In patent US20180273528A1 (LES LABORATOIRES SERVIER, priority 2015, published 2018):

What was measured:
Type in all cases: biochemical
DYRK1B = target: T1, DYRK1B (Homo sapiens, UniProt Q9Y463); assay: Kinase TR-FRET assay, DYRK1B; conditions: full-length human kinase, 10 μM ATP
T1 construct: full-length human kinases from Carna Biosciences; purchased Carna Biosciences 04-131
Protocol: (§1) Inhibition of the enzymatic activity of human kinases was evaluated in a Time-Resolved Fluorescence Resonance Energy Transfer (TR-FRET) assay in 384-well reaction plates. […] Test compounds of the invention were added in reaction buffer at a range of concentrations from 0.1 nM to 30 μM. Following addition of EDTA (Sigma E7889, 10 mM) to stop the reaction, Europium-labelled mouse monoclonal antibody recognizing phospho-Thr232 in MBP (Perkin Elmer TRF0201, 1 nM) was added.

DYRK1A = DYRK1A (Homo sapiens, UniProt Q13627); assay: Kinase TR-FRET assay, DYRK1A; set-up: full-length, wild-type human DYRK1A (NM_001396) with an HA tag; expressed in transfected cells; host or cells: human U2-OS osteosarcoma cells, transient transfection of a pcDNA3.1 plasmid; conditions: full-length human kinase, 10 μM ATP
Protocol: as §1

[1] = target: T2, His-TEV-DYRK1A Kinase domain (aa127-485) (Homo sapiens, UniProt Q13627); assay: Kinase ADP assay (ADP Hunter), DYRK1A kinase domain; conditions: 20 μM ATP
T2 construct: His-TEV-DYRK1A Kinase domain (aa127-485); His tag (N); TEV protease cleavage site (N)
Method in brief: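 Readout is ADP Hunter fluorescence at 590 nm, developed 20 min at 30 °C after the kinase step. That step ran 10 min at 30 °C in Hepes pH 7.4 (10 mM MgCl2, 1 mM EGTA, 0.02% Tween20) containing 20 μM ATP, 40 μM peptide and 20 nM enzyme plus compound.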

CDK9 = target: T3, CDK9 (Homo sapiens, UniProt P50750); assay: Kinase TR-FRET assay, CDK9; conditions: full-length human kinase, 10 μM ATP
T3 construct: full-length human kinases from Carna Biosciences; purchased Carna Biosciences 04-110
T3 sequence (P50750 whole entry): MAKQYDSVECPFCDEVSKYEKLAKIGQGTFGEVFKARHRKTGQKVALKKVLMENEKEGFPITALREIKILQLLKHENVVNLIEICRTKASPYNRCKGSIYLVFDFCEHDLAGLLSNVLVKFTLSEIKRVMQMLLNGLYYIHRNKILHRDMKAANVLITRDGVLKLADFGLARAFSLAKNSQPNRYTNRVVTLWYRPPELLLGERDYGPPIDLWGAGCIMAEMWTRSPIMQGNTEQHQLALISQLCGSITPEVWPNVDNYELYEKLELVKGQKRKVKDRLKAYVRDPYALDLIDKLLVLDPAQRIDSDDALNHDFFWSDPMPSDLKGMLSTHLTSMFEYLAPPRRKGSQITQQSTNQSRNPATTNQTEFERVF
T3 sequence (O60563 whole entry partner): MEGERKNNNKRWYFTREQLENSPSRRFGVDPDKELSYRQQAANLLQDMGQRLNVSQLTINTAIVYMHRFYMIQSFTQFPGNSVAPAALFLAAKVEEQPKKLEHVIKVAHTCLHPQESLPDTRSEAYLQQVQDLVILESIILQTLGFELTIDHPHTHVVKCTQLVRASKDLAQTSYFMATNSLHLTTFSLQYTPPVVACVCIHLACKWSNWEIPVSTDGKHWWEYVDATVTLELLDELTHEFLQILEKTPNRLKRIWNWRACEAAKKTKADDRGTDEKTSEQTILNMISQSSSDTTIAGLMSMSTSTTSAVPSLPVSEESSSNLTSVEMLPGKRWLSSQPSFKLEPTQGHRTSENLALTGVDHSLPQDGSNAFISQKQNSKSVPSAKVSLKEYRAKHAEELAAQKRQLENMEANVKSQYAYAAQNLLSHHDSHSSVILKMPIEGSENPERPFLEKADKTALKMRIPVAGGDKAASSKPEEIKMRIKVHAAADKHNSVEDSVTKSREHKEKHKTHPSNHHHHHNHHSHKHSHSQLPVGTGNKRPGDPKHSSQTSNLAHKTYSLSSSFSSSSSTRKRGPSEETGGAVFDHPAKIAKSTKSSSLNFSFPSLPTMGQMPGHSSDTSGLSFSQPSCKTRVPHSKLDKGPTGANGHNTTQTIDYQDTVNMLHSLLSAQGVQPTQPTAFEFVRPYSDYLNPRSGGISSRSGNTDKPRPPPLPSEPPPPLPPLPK
Protocol: Inhibition of the enzymatic activity of human kinases was evaluated in a Time-Resolved Fluorescence Resonance Energy Transfer (TR-FRET) assay in 384-well reaction plates. In this assay, full-length human kinases from Carna Biosciences—DYRK1A (NM_001396, ref. 04-130; 2.0 ng/μl), DYRK1B (NM_004714, ref. 04-131; 1.2 ng/p), CLK1 (NM_001162407, ref. 04-126; 0.7 ng/μl), CDK9 (NM_001261, ref. 04-110; 0.9 ng/μl), or GSK3β (NM_001146156, ref. 04-141; 2.0 ng/μl—were incubated for 40 minutes (DYRK1A and DYRK1B) or 100 minutes (CLK1, CDK9 and GSK3β) at room temperature with ATP (Sigma A2383, 10 μM) and a ULight™-labelled human Myelin Basic Protein (MBP) peptide substrate (Perkin Elmer TRF0109, 100 nM) in a reaction buffer composed of 50 mM HEPES pH7.4, 1 mM EGTA, 10 mM MgCl2, 2 mM DTT and 0.01% Tween20. Test compounds of the invention were added in reaction buffer at a range of concentrations from 0.1 nM to 30 μM. Following addition of EDTA (Sigma E7889, 10 mM) to stop the reaction, Europium-labelled mouse monoclonal antibody recognizing phospho-Thr232 in MBP (Perkin Elmer TRF0201, 1 nM) was added. After one hour, the reaction plates were read using a fluorescence reader (EnVision®, Perkin Elmer) at 620 nm and 665 nm (excitation at 340 nm); when the Europium donor fluorophore is excited by light at 340 nm, an energy transfer (620 nm) to the acceptor occurs, which will then emit light at 665 nm.

T1 sequence (Q9Y463 whole entry): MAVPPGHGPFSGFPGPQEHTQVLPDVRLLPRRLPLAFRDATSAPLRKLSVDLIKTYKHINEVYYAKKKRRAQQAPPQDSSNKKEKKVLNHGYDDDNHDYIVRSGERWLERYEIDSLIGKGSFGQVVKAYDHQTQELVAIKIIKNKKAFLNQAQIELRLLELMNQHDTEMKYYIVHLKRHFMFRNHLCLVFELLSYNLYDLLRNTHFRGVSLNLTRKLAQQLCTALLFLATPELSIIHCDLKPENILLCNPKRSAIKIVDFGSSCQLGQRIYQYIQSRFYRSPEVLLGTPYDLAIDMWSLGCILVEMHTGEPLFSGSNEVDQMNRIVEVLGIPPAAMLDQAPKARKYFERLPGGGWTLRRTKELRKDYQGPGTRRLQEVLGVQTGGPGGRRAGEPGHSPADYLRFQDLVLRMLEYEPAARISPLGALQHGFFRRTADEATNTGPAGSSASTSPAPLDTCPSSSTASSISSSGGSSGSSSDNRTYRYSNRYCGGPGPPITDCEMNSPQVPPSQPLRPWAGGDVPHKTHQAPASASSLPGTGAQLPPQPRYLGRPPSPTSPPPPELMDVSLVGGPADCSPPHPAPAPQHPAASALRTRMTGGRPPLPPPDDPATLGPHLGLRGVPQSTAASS

| SMILES | IC50 (DYRK1B) [µM] | IC50 (DYRK1A) [µM] | IC50 [1] [µM] | IC50 (CDK9) [µM] |
| --- | --- | --- | --- | --- |
| Cc1nc2ccc(-c3cc(N)nc(N)c3)nc2n1Cc1ccc(F)cc1 [Example 10, 4-[3-(4-fluorobenzyl)-2-methyl-3H-imidazo[4,5-b]pyridin-5-yl]pyridine-2,6-diamine] | 0.055 | 0.032 | 0.079 | 4.58 |
| Cc1nc2ccc(-c3cc(N)nc(N)c3)nc2n1CCCN1CCCC1=O [Example 13, 1-{3-[5-(2,6-diaminopyridin-4-yl)-2-methyl-3H-imidazo[4,5-b]pyridin-3-yl]propyl}pyrrolidin-2-one] | 0.019 | 0.012 | 0.035 | > 10 |
| Cc1nc2ccc(-c3cc(N)nc(N)c3)nc2n1Cc1cccs1 [Example 20, 4-[2-methyl-3-(thiophen-2-ylmethyl)-3H-imidazo[4,5-b]pyridin-5-yl]pyridine-2,6-diamine] | 0.016 | 0.016 | 0.032 | 2.92 |
| CC(=O)Nc1ccc(CCn2c(C)nc3ccc(-c4cc(N)nc(N)c4)nc32)cc1 [Example 24, N-(4-{2-[5-(2,6-diaminopyridin-4-yl)-2-methyl-3H-imidazo[4,5-b]pyridin-3-yl]ethyl}phenyl)acetamide] | 0.015 | 0.005 | 0.008 | 3.53 |
| Cc1nc2ccc(-c3cc(N)nc(N)c3)nc2n1CCc1cccs1 [Example 26, 4-{2-methyl-3-[2-(thiophen-2-yl)ethyl]-3H-imidazo[4,5-b]pyridin-5-yl}pyridine-2,6-diamine] | 0.006 | 0.004 | 0.007 | 1.82 |
| Cc1nc2ccc(-c3cc(N)nc(N)c3)nc2n1CCOc1cccc2ccccc12 [Example 27, 4-{2-methyl-3-[2-(naphthalen-1-yloxy)ethyl]-3H-imidazo[4,5-b]pyridin-5-yl}pyridine-2,6-diamine] | 0.005 | 0.015 | 0.056 | > 10 |
| Cc1nc2ccc(-c3cc(N)nc(N)c3)nc2n1CC(C)(C)C [Example 30, 4-[3-(2,2-dimethylpropyl)-2-methyl-3H-imidazo[4,5-b]pyridin-5-yl]pyridine-2,6-diamine] | 0.125 | 0.017 | 0.018 | 3.57 |
| CCC(C)Cn1c(C)nc2ccc(-c3cc(N)nc(N)c3)nc21 (stereo not shown) [Example 34, 4-[2-methyl-3-(2-methylbutyl)-3H-imidazo[4,5-b]pyridin-5-yl]pyridine-2,6-diamine] | 0.015 | 0.03 | 0.01 | 1.4 |

Now from value to compound:

| IC50 (DYRK1B) [µM] | IC50 (DYRK1A) [µM] | IC50 [1] [µM] | IC50 (CDK9) [µM] | SMILES |
| --- | --- | --- | --- | --- |
| 0.046 | 0.003 | 0.025 | 0.728 | Cc1nc2ccc(-c3cc(N)nc(N)c3)nc2n1Cc1ccccc1Cl [Example 47, 4-[3-(2-chlorobenzyl)-2-methyl-3H-imidazo[4,5-b]pyridin-5-y]pyridine-2,6-diamine] |
| 0.005 | 0.026 | 0.085 | > 10 | Cc1nc2ccc(-c3cc(N)nc(N)c3)nc2n1Cc1cc(Cl)ccc1Cl [Example 57, 4-[3-(2,5-dichlorobenzyl)-2-methyl-3H-imidazo[4,5-b]pyridin-5-yl]pyridine-2,6-diamine] |
| 0.003 | 0.002 | 0.021 | > 10 | Cc1nc2ccc(-c3cc(N)nc(N)c3)nc2n1CCc1ccc(Cl)cc1Cl [Example 59, 4-{3-[2-(2,4-dichlorophenyl)ethyl]-2-methyl-3H-imidazo[4,5-b]pyridin-5-yl}pyridine-2,6-diamine] |
| 0.03 | 0.009 | 0.026 | > 10 | CCCC(C)n1c(C)nc2ccc(-c3cc(N)nc(N)c3)nc21 (stereo not shown) [Example 64, 4-[2-methyl-3-(pentan-2-yl)-3H-imidazo[4,5-b]pyridin-5-yl]pyridine-2,6-diamine] |
| 0.132 | 0.029 | 0.193 | > 10 | CCC(CC)n1c(C)nc2ccc(-c3cc(N)nc(N)c3)nc21 [Example 68, 4-[2-methyl-3-(pentan-3-yl)-3H-imidazo[4,5-b]pyridin-5-yl]pyridine-2,6-diamine] |
